# Measured values taken from patent publication US10577363B2, “Substituted piperidine compounds” (EPIZYME, INC., priority 2014, dated 2020).
# Target: SMYD3 (Homo sapiens (Human), UniProt Q9H7B4)
# Test: SMYD3 biochemical assay (SPA, 3H-SAM methylation of MEKK2 protein substrate)
# Conditions: read-out: SMYD3 Biochem IC50 (μM)*
# Procedure, shortened: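 Enzyme: untagged full-length human SMYD3 from E. coli; substrate GST-tagged MEKK2 from insect cells. Buffer 25 mM Tris-Cl pH 8.0, 1 mM TCEP, 0.005% BSG/Tween 20. 30 min compound–enzyme preincubation at RT; 3H-SAM/MEKK2 start; stop with cold SAM (100 uM final); SPA readout in cpm.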
row,SMILES,IC50 [µM]
1,"C[C@H](C(=O)N1CC[C@H](NC(=O)c2cc(C3CC3)on2)C[C@H]1C)C1CCNCC1 [compound 307, 5-cyclopropyl-N-((2R,4S)-2-methyl-1-((S)-2-(piperidin-4-yl)propanoyl)piperidin-4-yl)isoxazole-3-carboxamide]",0.928
2,"C[C@@H]1C[C@@H](NC(=O)c2cc(C3CC3)on2)CCN1C(=O)[C@H](C)C1CCNCC1 [compound 308, 5-cyclopropyl-N-((2R,4S)-2-methyl-1-((R)-2-(piperidin-4-yl)propanoyl)piperidin-4-yl)isoxazole-3-carboxamide]",0.179
3,"C[C@H]1C[C@H](NC(=O)c2cc(C3CC3)on2)CCN1C(=O)CC(C)(C)CN [compound 311, N-((2S,4R)-1-(4-amino-3,3-dimethylbutanoyl)-2-methylpiperidin-4-yl)-5-cyclopropylisoxazole-3-carboxamide]",1.62
4,"C[C@@H]1C[C@H](NC(=O)c2cc(C3CC3)on2)CCN1C(=O)CC(C)(C)CN [compound 312, N-((2R,4R)-1-(4-amino-3,3-dimethylbutanoyl)-2-methylpiperidin-4-yl)-5-cyclopropylisoxazole-3-carboxamide]",0.416
5,"C[C@@H]1C[C@@H](NC(=O)c2cc(C3CC3)on2)CCN1C(=O)CC(CN)c1ccccc1 (stereo partly drawn) [compound 313, N-((2R,4S)-1-(4-amino-3-phenylbutanoyl)-2-methylpiperidin-4-yl)-5-cyclopropylisoxazole-3-carboxamide]",5.02
6,"C[C@H]1C[C@@H](NC(=O)c2cc(C3CC3)on2)CCN1S(=O)(=O)c1ccc(Cl)nc1 [compound 318, N-((2S,4S)-1-((6-chloropyridin-3-yl)sulfonyl)-2-methylpiperidin-4-yl)-5-cyclopropylisoxazole-3-carboxamide]",1.88
7,"CCOC(=O)CS(=O)(=O)N1CC[C@H](NC(=O)c2cc(C3CC3)on2)C[C@H]1C [compound 320, ethyl 2-(((2R,4S)-4-(5-cyclopropylisoxazole-3-carboxamido)-2-methylpiperidin-1-yl)sulfonyl)acetate]",> 10
8,"C[C@@H]1C[C@@H](NC(=O)c2cc(C3CC3)on2)CCN1S(=O)(=O)c1ccccn1 [compound 321, 5-cyclopropyl-N-((2R,4S)-2-methyl-1-(pyridin-2-ylsulfonyl)piperidin-4-yl)isoxazole-3-carboxamide]",4.47
9,"CCCS(=O)(=O)N1CC[C@@H](NC(=O)c2cc(C3CC3)on2)C[C@@H]1C [compound 322, 5-cyclopropyl-N-((2S,4R)-2-methyl-1-(propylsulfonyl)piperidin-4-yl)isoxazole-3-carboxamide]",> 10
10,"CC(C)CS(=O)(=O)N1CC[C@@H](NC(=O)c2cc(C3CC3)on2)C[C@@H]1C [compound 323, 5-cyclopropyl-N-((2S,4R)-1-(isobutylsulfonyl)-2-methylpiperidin-4-yl)isoxazole-3-carboxamide]",> 10
11,"C[C@H]1C[C@H](NC(=O)c2cc(C3CC3)on2)CCN1S(=O)(=O)N1CCN(C)CC1 [compound 324, 5-cyclopropyl-N-((2S,4R)-2-methyl-1-((4-methylpiperazin-1-yl)sulfonyl)piperidin-4-yl)isoxazole-3-carboxamide]",1.65
12,"C[C@H]1C[C@H](NC(=O)c2cc(C3CC3)on2)CCN1S(=O)(=O)Cc1cccnc1 [compound 325, 5-cyclopropyl-N-((2S,4R)-2-methyl-1-((pyridin-3-ylmethyl)sulfonyl)piperidin-4-yl)isoxazole-3-carboxamide]",> 10
13,"C[C@H]1C[C@H](NC(=O)c2cc(C3CC3)on2)CCN1S(=O)(=O)CCc1ccccc1 [compound 326, 5-cyclopropyl-N-((2S,4R)-2-methyl-1-(phenethylsulfonyl)piperidin-4-yl)isoxazole-3-carboxamide]",> 10
14,"COCCCS(=O)(=O)N1CC[C@@H](NC(=O)c2cc(C3CC3)on2)C[C@@H]1C [compound 327, 5-cyclopropyl-N-((2S,4R)-1-((3-methoxypropyl)sulfonyl)-2-methylpiperidin-4-yl)isoxazole-3-carboxamide]",> 10
15,"CC1CN(C(=O)CCCN)CC(C)C1NC(=O)c1cc(C2CC2)on1 (stereo not shown) [compound 332, N-(1-(4-aminobutanoyl)-3,5-dimethylpiperidin-4-yl)-5-cyclopropylisoxazole-3-carboxamide]",2.53
16,"C[C@H]1C[C@@H](NC(=O)c2cc(C3CC3)on2)CCN1C(=O)CC(CN)c1ccccc1 (stereo partly drawn) [compound 338, N-((2S,4S)-1-(4-amino-3-phenylbutanoyl)-2-methylpiperidin-4-yl)-5-cyclopropylisoxazole-3-carboxamide]",0.842
17,"C[C@@H]1C[C@@H](NC(=O)c2cc(C3CC3)on2)CCN1S(=O)(=O)CCc1ccccc1 [compound 344, 5-cyclopropyl-N-((2R,4S)-2-methyl-1-(phenethylsulfonyl)piperidin-4-yl)isoxazole-3-carboxamide]",> 10

# Continued, values first:
row,IC50 [µM],SMILES
1,4.67,"C[C@H]1C[C@H](NC(=O)c2cc(C3CC3)on2)CCN1C(=O)CC(CN)c1ccccc1 (stereo partly drawn) [compound 339, N-((2S,4R)-1-(4-amino-3-phenylbutanoyl)-2-methylpiperidin-4-yl)-5-cyclopropylisoxazole-3-carboxamide]"
2,0.552,"C[C@@H]1C[C@H](NC(=O)c2cc(C3CC3)on2)CCN1C(=O)C1CCCC(CN)C1 (stereo partly drawn) [compound 342, N-((2R,4R)-1-(3-(aminomethyl)cyclohexane-1-carbonyl)-2-methylpiperidin-4-yl)-5-cyclopropylisoxazole-3-carboxamide]"
3,1.07,"C[C@@H]1C[C@@H](NC(=O)c2cc(C3CC3)on2)CCN1C(=O)C1CCCC(CN)C1 (stereo partly drawn) [compound 343, N-((2R,4S)-1-(3-(aminomethyl)cyclohexane-1-carbonyl)-2-methylpiperidin-4-yl)-5-cyclopropylisoxazole-3-carboxamide]"
4,> 10,"C[C@@H]1C[C@@H](NC(=O)c2cc(C3CC3)on2)CCN1S(=O)(=O)CCC(F)(F)F [compound 345, 5-cyclopropyl-N-((2R,4S)-2-methyl-1-((3,3,3-trifluoropropyl)sulfonyl)piperidin-4-yl)isoxazole-3-carboxamide]"
5,> 10,"C[C@H]1C[C@H](NC(=O)c2cc(C3CC3)on2)CCN1S(=O)(=O)N(C)C [compound 346, 5-cyclopropyl-N-((2S,4R)-1-(N,N-dimethylsulfamoyl)-2-methylpiperidin-4-yl)isoxazole-3-carboxamide]"
6,8.02,"CCCCS(=O)(=O)N1CC[C@@H](NC(=O)c2cc(C3CC3)on2)C[C@@H]1C [compound 347, N-((2S,4R)-1-(butylsulfonyl)-2-methylpiperidin-4-yl)-5-cyclopropylisoxazole-3-carboxamide]"
7,3.98,"C[C@@H]1C[C@@H](NC(=O)c2cc(C3CC3)on2)CCN1S(=O)(=O)c1ccccc1 [compound 353, 5-cyclopropyl-N-((2R,4S)-2-methyl-1-(phenylsulfonyl)piperidin-4-yl)isoxazole-3-carboxamide]"
8,0.278,"C[C@@H]1C[C@@H](NC(=O)c2cc(C3CC3)on2)CCN1S(=O)(=O)c1cccc(C#N)c1 [compound 355, N-((2R,4S)-1-((3-cyanophenyl)sulfonyl)-2-methylpiperidin-4-yl)-5-cyclopropylisoxazole-3-carboxamide]"
9,1.21,"NCCCC(=O)N1CCC(NC(=O)c2cc(C3CC3)on2)C(C(F)(F)F)C1 (stereo not shown) [compound 356, N-(1-(4-aminobutanoyl)-3-(trifluoromethyl)piperidin-4-yl)-5-cyclopropylisoxazole-3-carboxamide]"
10,1.17,"C[C@@H]1CC(NC(=O)c2cc(C3CC3)on2)CCN1C(=O)[C@@H](CN)Cc1ccc(O)cc1 (stereo partly drawn) [compound 357, N-((2R)-1-((R)-3-amino-2-(4-hydroxybenzyl)propanoyl)-2-methylpiperidin-4-yl)-5-cyclopropylisoxazole-3-carboxamide]"
11,3.4,"C[C@H](C(=O)N1CC[C@@H](NC(=O)c2cc(C3CC3)on2)C[C@@H]1C)C1CCNCC1 [compound 358, 5-cyclopropyl-N-((2S,4R)-2-methyl-1-((S)-2-(piperidin-4-yl)propanoyl)piperidin-4-yl)isoxazole-3-carboxamide]"
12,1.46,"C[C@@H](C(=O)N1CC[C@@H](NC(=O)c2cc(C3CC3)on2)C[C@@H]1C)C1CCNCC1 [compound 359, 5-cyclopropyl-N-((2S,4R)-2-methyl-1-((R)-2-(piperidin-4-yl)propanoyl)piperidin-4-yl)isoxazole-3-carboxamide]"
13,2.95,"O=C(N[C@@H]1CCN(C(=O)CC2CCNCC2)C[C@@H]1CO)c1cc(C2CC2)on1 [compound 362, 5-cyclopropyl-N-((3S,4R)-3-(hydroxymethyl)-1-(2-(piperidin-4-yl)acetyl)piperidin-4-yl)isoxazole-3-carboxamide]"
14,1.99,"N[C@H]1CC[C@H](C(=O)N2CC[C@@H](NC(=O)c3cc(C4CC4)on3)C[C@@H]2CO)CC1 [compound 363, N-((2R,4R)-1-((1r,4R)-4-aminocyclohexane-1-carbonyl)-2-(hydroxymethyl)piperidin-4-yl)-5-cyclopropylisoxazole-3-carboxamide]"
15,4.57,"N[C@H]1CC[C@H](C(=O)N2CC[C@H](NC(=O)c3cc(C4CC4)on3)C[C@H]2Cc2ccccc2)CC1 [compound 364, N-((2R,4S)-1-((1r,4R)-4-aminocyclohexane-1-carbonyl)-2-benzylpiperidin-4-yl)-5-cyclopropylisoxazole-3-carboxamide]"
16,2.75,"C[C@H]1C[C@H](NC(=O)c2cc(C3CC3)on2)CCN1C(=O)c1cccc(C(C)(C)N)c1 [compound 366, N-((2S,4R)-1-(3-(2-aminopropan-2-yl)benzoyl)-2-methylpiperidin-4-yl)-5-cyclopropylisoxazole-3-carboxamide]"
17,5.87,"C[C@H]1C[C@H](NC(=O)c2cc(C3CC3)on2)CCN1C(=O)c1ccc(C(C)(C)N)cc1 [compound 369, N-((2S,4R)-1-(4-(2-aminopropan-2-yl)benzoyl)-2-methylpiperidin-4-yl)-5-cyclopropylisoxazole-3-carboxamide]"
